Laboratory results published in PubChem BioAssay AID1845217 (Molecular Pharmacology Branch, DTP, NCI, 2023).

Test system: VA-ES-BJ tumor spheroid viability
Experiment: Anticancer human tumor VA-ES-BJ cell line growth inhibition;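 note: spheroids exposed to compounds for seven days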;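 for viability, T/C: percent of DMSO vehicle control viability so 100% = untreated growth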
Details: spheroids with HUVEC and MSC; for IC50: curve of first compound; for viability, T/C: stronger effect = lower value
Summary of the method: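 Complex spheroids of malignant cells with endothelial cells and mesenchymal stem cells; agents alone or combined, from near clinical Cmax (or 10 microM if unknown) down in half-log steps, 0.25% DMSO final.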

[1] = second compound 1 µM, first compound 0.0316 µM
[2] = second compound 1 µM, first compound 0.1 µM
[3] = second compound 1 µM, first compound 0.316 µM
[4] = second compound 1 µM, first compound 1 µM
[5] = second compound 1 µM, first compound 3.16 µM
[6] = second compound 1 µM, first compound 10 µM
[7] = second compound 3.16 µM, first compound 0.0316 µM
[8] = second compound 3.16 µM, first compound 0.1 µM
[9] = second compound 3.16 µM, first compound 0.316 µM
[10] = second compound 3.16 µM, first compound 1 µM
[11] = second compound 3.16 µM, first compound 3.16 µM
[12] = second compound 3.16 µM, first compound 10 µM
[13] = second compound 10 µM, first compound 0.0316 µM
[14] = second compound 10 µM, first compound 0.1 µM
[15] = second compound 10 µM, first compound 0.316 µM
[16] = second compound 10 µM, first compound 1 µM
[17] = second compound 10 µM, first compound 3.16 µM
[18] = second compound 10 µM, first compound 10 µM
[19] = second compound 31.6 µM, first compound 0.0316 µM
[20] = second compound 31.6 µM, first compound 0.1 µM
[21] = second compound 31.6 µM, first compound 0.316 µM
[22] = second compound 31.6 µM, first compound 1 µM
[23] = second compound 31.6 µM, first compound 3.16 µM
[24] = second compound 31.6 µM, first compound 10 µM
[25] = second compound 100 µM, first compound 0.0316 µM
[26] = second compound 100 µM, first compound 0.1 µM
[27] = second compound 100 µM, first compound 0.316 µM
[28] = second compound 100 µM, first compound 1 µM
[29] = second compound 100 µM, first compound 3.16 µM
[30] = second compound 100 µM, first compound 10 µM

| Compound | IC50 (second compound 1 µM) [nM] | IC50 (second compound 3.16 µM) [nM] | IC50 (second compound 10 µM) [nM] | IC50 (second compound 31.6 µM) [nM] | IC50 (second compound 100 µM) [nM] | viability, T/C [1] [%] | viability, T/C [2] [%] | viability, T/C [3] [%] | viability, T/C [4] [%] | viability, T/C [5] [%] | viability, T/C [6] [%] | viability, T/C [7] [%] | viability, T/C [8] [%] | viability, T/C [9] [%] | viability, T/C [10] [%] | viability, T/C [11] [%] | viability, T/C [12] [%] | viability, T/C [13] [%] | viability, T/C [14] [%] | viability, T/C [15] [%] | other results |
| --- | --- | --- | --- | --- | --- | --- | --- | --- | --- | --- | --- | --- | --- | --- | --- | --- | --- | --- | --- | --- | --- |
| CC(C)n1c(=O)n(C)c2cnc3cc(F)c(-c4ccc(OCCCN5CCCCC5)nc4)cc3c21 + Cn1nnc2c(C(N)=O)ncn2c1=O | > 10000 | > 10000 | > 10000 | > 10000 | > 10000 | 93 | 92.2 | 93 | 105 | 110 | 77.8 | 94 | 86.3 | 93.3 | 110 | 111 | 55.6 | 92.2 | 94.3 | 88 | viability, T/C [16]: 103%; viability, T/C [17]: 111%; viability, T/C [18]: 62.1%; viability, T/C [19]: 80.6%; viability, T/C [20]: 100%; viability, T/C [21]: 103%; viability, T/C [22]: 103%; viability, T/C [23]: 113%; viability, T/C [24]: 53.3%; viability, T/C [25]: 103%; viability, T/C [26]: 102%; viability, T/C [27]: 106%; viability, T/C [28]: 116%; viability, T/C [29]: 109%; viability, T/C [30]: 101% |
| CC1COCCN1c1cc(-c2ccnn2C)c2ccnc(-c3ccn[nH]3)c2n1 (stereo not given) + Cn1nnc2c(C(N)=O)ncn2c1=O | 118 | 127 | 111 | 84.1 | 56.1 | 94.7 | 52.9 | 29 | 8.26 | 6.9 | 6.16 | 85.2 | 54.7 | 30.1 | 9.03 | 6.96 | 5.94 | 87.7 | 51.8 | 26.4 | viability, T/C [16]: 8.47%; viability, T/C [17]: 6.49%; viability, T/C [18]: 6.12%; viability, T/C [19]: 81.3%; viability, T/C [20]: 44%; viability, T/C [21]: 23.2%; viability, T/C [22]: 9.91%; viability, T/C [23]: 6.7%; viability, T/C [24]: 5.99%; viability, T/C [25]: 62.7%; viability, T/C [26]: 37.2%; viability, T/C [27]: 18.4%; viability, T/C [28]: 8.87%; viability, T/C [29]: 6.58%; viability, T/C [30]: 5.6% |
| COc1cc(C)[nH]c(=O)c1CN1CCc2c(Cl)cc(C(OC)C3COC3)c(Cl)c2C1=O (stereo not given) + Cn1nnc2c(C(N)=O)ncn2c1=O | 9570 | > 10000 | 3260 | 3360 | 2220 | 94 | 88.8 | 72.2 | 61.4 | 54 | 49 | 97.6 | 85.8 | 70.8 | 60.3 | 56.1 | 49.5 | 89 | 87.2 | 71.6 | viability, T/C [16]: 58.4%; viability, T/C [17]: 52.4%; viability, T/C [18]: 45.2%; viability, T/C [19]: 95.5%; viability, T/C [20]: 85.4%; viability, T/C [21]: 68.9%; viability, T/C [22]: 56.8%; viability, T/C [23]: 51.9%; viability, T/C [24]: 46%; viability, T/C [25]: 106%; viability, T/C [26]: 90.2%; viability, T/C [27]: 75.1%; viability, T/C [28]: 53.8%; viability, T/C [29]: 48.7%; viability, T/C [30]: 42.7% |
| COc1ccc([C@@H](O)c2cc(-c3ncnc4cc(N5CCOCC5)ccc34)c(F)cc2Cl)nn1 + Cn1nnc2c(C(N)=O)ncn2c1=O | 477 | 574 | 602 | 623 | 547 | 94.9 | 79.5 | 56.8 | 37.9 | 15.8 | 7.65 | 92.4 | 89.6 | 70 | 31 | 13.2 | 7.49 | 92.5 | 84.4 | 63.5 | viability, T/C [16]: 41.5%; viability, T/C [17]: 11.4%; viability, T/C [18]: 7.61%; viability, T/C [19]: 85.6%; viability, T/C [20]: 83%; viability, T/C [21]: 65.8%; viability, T/C [22]: 38.8%; viability, T/C [23]: 16.1%; viability, T/C [24]: 7.46%; viability, T/C [25]: 96.2%; viability, T/C [26]: 98.1%; viability, T/C [27]: 61.5%; viability, T/C [28]: 35%; viability, T/C [29]: 13.9%; viability, T/C [30]: 8.08% |
| Cc1cc(C)c(CNC(=O)c2cc(-c3ccc(CN4CCOCC4)cc3)cc3c2cnn3C2CCCC2)c(=O)[nH]1 + Cn1nnc2c(C(N)=O)ncn2c1=O | > 10000 | > 10000 | > 10000 | > 10000 | > 10000 | 114 | 97.9 | 101 | 113 | 117 | 104 | 99.2 | 102 | 92.7 | 97.6 | 110 | 101 | 102 | 100 | 101 | viability, T/C [16]: 109%; viability, T/C [17]: 108%; viability, T/C [18]: 104%; viability, T/C [19]: 91.2%; viability, T/C [20]: 96.8%; viability, T/C [21]: 94.8%; viability, T/C [22]: 110%; viability, T/C [23]: 104%; viability, T/C [24]: 96%; viability, T/C [25]: 103%; viability, T/C [26]: 108%; viability, T/C [27]: 92.1%; viability, T/C [28]: 102%; viability, T/C [29]: 122%; viability, T/C [30]: 109% |
| [2H]c1nc(C)nc([2H])c1-c1cc(NC[C@@H](C)c2cccc3c(C(=O)NC)ccnc23)ncn1 + Cn1nnc2c(C(N)=O)ncn2c1=O | > 10000 | > 10000 | > 10000 | > 10000 | > 10000 | 108 | 105 | 106 | 94.7 | 95.8 | 92.5 | 111 | 90.1 | 90.2 | 91.1 | 98.3 | 97 | 111 | 94.6 | 97.5 | viability, T/C [16]: 101%; viability, T/C [17]: 94.1%; viability, T/C [18]: 95.6%; viability, T/C [19]: 114%; viability, T/C [20]: 103%; viability, T/C [21]: 105%; viability, T/C [22]: 99.2%; viability, T/C [23]: 89.4%; viability, T/C [24]: 85.6%; viability, T/C [25]: 103%; viability, T/C [26]: 102%; viability, T/C [27]: 107%; viability, T/C [28]: 104%; viability, T/C [29]: 99.9%; viability, T/C [30]: 96% |
